The test system of one assay is Akt phosphorylation. The assay is described as follows: Pharmacodynamics: Akt phosphorylation in platelet-rich plasma. The class given is in vivo, human. The conditions noted are these: pre-treatment vs post-treatment, 32 patients. Here is the method:
(§1) In both studies, the PK profile of DS-7423 was characterised during cycle 1 on days 1 and 8. For PD analysis, glucose, C-peptide, and Akt phosphorylation were measured in platelet-rich plasma collected at predose, 1, 2, 4, 6, and 24 h after dosing on days 1 and 15. Tumour assessment was performed every two cycles using Response Evaluation Criteria in Solid Tumours (RECIST) version 1.1 in both studies. 18F-Fluoro-2-deoxy-D-glucose positron emission tomography ([18F]-FDG) was performed as an exploratory endpoint at baseline and on day 4.[10]

The subject of a further assay is advanced solid tumours. Briefly: Tumour assessment RECIST 1.1, both studies. As to conditions: either study. The assay is classed as in vivo, human. Here is the method:
as §1

Regarding `CC(=O)N1CCN(c2nc3c(N4CCOCC4)nc(-c4cnc(N)nc4)nc3n2CC(F)(F)F)C[C@H]1C` [DS-7423], the “Akt phosphorylation in platelet-rich plasma” value in the assay on Akt phosphorylation is recorded as “inhibited compared with that at baseline”. Besides, in the assay with advanced solid tumours, the “Response by RECIST 1.1” value is “no PR or CR”.

The values are drawn from publication PMC6008299, “Impact of race on dose selection of molecular-targeted agents in early-phase oncology trials” (British Journal of Cancer, 2018).
